Assay results from PubChem BioAssay (NCI).
Several values for one entry are separate records, joined by “and”; a condition that tells them apart may be missing. Identical values can stand only once.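 1) Cells in 96-well plates. 2) Compound, 48 h, 5 concentrations. 3) Linear interpolation between surrounding doses. 4) Unreached endpoint = highest concentration. GI50 is the concentration that inhibits growth by half. The concentration for full growth arrest is given as TGI.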

Experiments:
Experiment in all cases: NCI anticancer screen, dose series, 48 h
[1] = test system: COLO 205 colon
[2] = test system: K-562 leukemia
[3] = test system: MDA-MB-231 breast
[4] = test system: SK-OV-3 ovarian
[5] = test system: NCI-H522 lung
[6] = test system: CAKI-1 renal
[7] = test system: MOLT-4 leukemia
[8] = test system: ACHN renal
[9] = test system: CCRF-CEM leukemia
[10] = test system: RPMI-8226 leukemia

| SMILES | TGI [1] [µM] | TGI [2] | TGI [3] [µM] | TGI [4] [µM] | TGI [5] [µM] | TGI [6] [µM] | TGI [7] | TGI [8] [µM] | TGI [9] | TGI [10] [µM] | GI50 [1] [µM] | GI50 [2] [µM] | GI50 [3] [µM] | GI50 [5] [µM] | GI50 [6] [µM] | GI50 [10] [µM] | GI50 [7] [µM] | GI50 [8] [µM] | GI50 [9] [µM] | GI50 [4] [µM] |
| --- | --- | --- | --- | --- | --- | --- | --- | --- | --- | --- | --- | --- | --- | --- | --- | --- | --- | --- | --- | --- |
| COC1/C=C\OC2(C)Oc3c(C)c(O)c4c(O)c(c(/C=N\OCCCc5ccccc5)c(O)c4c3C2=O)NC(=O)/C(C)=C\C=C/C(C)C(O)C(C)C(O)C(C)C(OC(C)=O)C1C (centres undefined) | 4.12 | 15.4 µM | 7.97 | 15.4 | 10.7 | 15.2 | 10.5 µM | 7.39 | 6.35 µM |  |  |  |  |  |  |  |  |  |  |  |
| CCN=C=NCCCN(C)C | > 100 | > 100 µM | > 100 | > 100 | > 100 | > 100 | > 100 µM | > 100 | > 100 µM | > 100 |  |  |  |  |  |  |  |  |  |  |
| CN1CCC(C(=O)NNc2ccccc2)CC1 | 10.2 |  |  | > 100 | > 100 | > 100 | > 100 µM | > 68.9 | > 100 µM | > 100 |  |  |  |  |  |  |  |  |  |  |
| COc1ccc(-c2nn(-c3ccc(NC(=O)Nc4ccc(Cl)c(Cl)c4)cc3)cc2-c2ccncc2)cc1Cl | 5.27 | > 100 µM | 4.33 |  | 5.66 | 15.4 | > 100 µM | > 100 | > 100 µM | 3.18 | 2.19 | 1.43 | 1.5 | 1.39 | 1.95 | 0.54 | 1.89 | 2.27 | 2.09 |  |
| c1ccc(-n2cnnc2-c2nsc3ccccc23)cc1 | > 100 | > 100 µM |  |  |  |  | > 100 µM | > 100 | > 100 µM | > 100 |  |  |  |  |  |  |  |  |  |  |
| C=C1CC23CCC4C(C)(C(=O)O)CCCC4(C)C2CCC1C3 (centres undefined) | 39.5 | > 100 µM | > 100 | > 100 | 89.7 | > 100 |  | > 100 | > 100 µM | 91.6 |  |  |  |  |  |  |  |  |  |  |
| O=C(O)CC(C(=O)O)C1c2ccccc2-c2ccccc21 (centres undefined) | > 100 | > 100 µM | > 100 | > 100 | > 100 | > 100 | > 100 µM | > 100 | > 100 µM | > 100 |  |  |  |  |  |  |  |  |  |  |
| COc1cc(C(C)(C)C)cc(OC)c1C(O)(c1c(OC)cc(C(C)(C)C)cc1OC)c1c(OC)cc(C(C)(C)C)cc1OC | 0.34 |  |  |  | 0.768 |  |  | 0.987 |  | 0.725 | 0.188 |  |  | 0.237 |  | 0.233 |  | 0.284 |  |  |
| O=Nc1ccc(O)c2ncccc12 | 30.6 | > 100 µM | 57.3 | 31.3 | 3.58 | 31.1 | > 100 µM | 14.5 | > 100 µM | 99.8 |  |  |  |  |  |  |  |  |  |  |
| Nc1cc(S(=O)(=O)O)cc2cc(S(=O)(=O)O)c(N=Nc3ccc(-c4ccc(N=Nc5c(S(=O)(=O)O)cc6cc(S(=O)(=O)O)cc(N)c6c5O)cc4)cc3)c(O)c12 | > 100 | > 100 µM |  | > 100 | > 100 |  | > 100 µM |  | > 100 µM | > 100 |  |  |  |  |  |  |  |  |  |  |
| OC(Cc1ccccc1)(Cc1ccccc1)c1ccccc1 |  | > 100 µM | 33.8 |  | 32.3 | 47.7 | > 100 µM | 33.5 | > 100 µM | > 100 |  |  |  |  |  |  |  |  |  |  |
| C=C(C)C(=O)OC1C(C(C)CCCO)=C(CO)CC2OC(=O)C(=C)C21 (centres undefined) | 29.3 | 49.4 µM | 36 | 95.7 | 13.1 | 31.3 | 88.9 µM | 79.8 | > 100 µM | 91.9 |  |  |  |  |  |  |  |  |  |  |
| C=C1C(=O)OC2/C=C(\C)C(=O)CC3OC(C)(C)OC3(C)CC(OC(=O)/C(C)=C/C)C12 (centres undefined) | > 59.7 | > 60.9 µM | 58 | > 100 | 9.82 | 10.3 | 37.2 µM | 16.6 | > 21.8 µM | > 100 |  |  |  |  |  |  |  |  |  |  |
| O=[N+]([O-])c1ccc(/C=N\Nc2ccc([N+](=O)[O-])cn2)cc1 | > 100 | > 100 µM | > 100 | > 100 | > 100 |  | > 100 µM | > 100 | > 100 µM | > 100 |  |  |  |  |  |  |  |  |  |  |
| N=C(N)c1ccc(-c2ccc(-c3cncc4ccccc34)s2)cc1F | 3.94 |  | 3.12 | 3.63 | 5.56 | 2.91 |  |  |  | 4.49 | 1.87 |  | 1.4 | 2.2 | 1.52 | 1.64 |  |  |  | 1.84 |
| C=C(CN(C)C)C(=O)c1ccc(C)cc1C | 11.3 | 9.74 µM | 52.1 | 39.6 | 14.4 | 8.39 | 2.25 µM | 19.3 | 2.14 µM | > 100 |  |  |  |  |  |  |  |  |  |  |
| O=S(=O)(O)c1cc(N=Nc2cc(S(=O)(=O)O)c3ccccc3c2O)ccc1/C=C/c1ccc(N=Nc2cc(S(=O)(=O)O)c3ccccc3c2O)cc1S(=O)(=O)O | > 380 | > 67.1 µM and 78.1 µM | 82.1 | > 876 | > 669 | > 756 | 51.1 µM and 82.5 µM | > 755 | 42.5 µM and 92.7 µM | > 311 |  |  |  |  |  |  | 36.3 |  | 32.5 |  |
| C=C(C)[C@@H]1CC[C@]2(C(=O)Nc3ccccn3)CC[C@]3(C)[C@H](CC[C@@H]4[C@@]5(C)CCCNC(C)(C)[C@@H]5CC[C@]43C)[C@@H]12 |  | 4.78 µM |  | 14.1 |  | 2.93 |  | 4.64 | > 100 µM |  |  | 1.45 |  |  | 1.55 |  |  | 2.08 | 3.02 | 2.94 |
| C=C(C)C1CC2=C(O1)C(=O)c1ccccc1C2=O (centres undefined) | 37.4 | 42.1 µM |  | > 100 | 39.4 | 31.7 | 32.8 µM |  | 52.7 µM | 44.5 |  |  |  |  |  |  |  |  |  |  |
